For one assay, the target named is T1, Ret wt (Homo sapiens, UniProt P07949).
T1 construct: purchased Invitrogen PV3082
Description: HTRF kinase activity test, RET wild type. It counts as biochemical. To be noted: Table 3; read-out: RET Enzyme (wild type) IC50. On the procedure: This test combined peptide substrates and a single proprietary monoclonal antibody with HTRF technology, which was a highly sensitive and stable technology for detecting molecular interactions of proteins. The enzyme phosphorylates the substrate, then the Eu-labeled antibody binds to the phosphorylated substrate, and streptavidin-XL665 binds to all substrates. The TR-FRET signal was generated by the HTRF principle. […] Based on this, the inhibitory effect was evaluated.
(§1) The other compounds were diluted 3-fold gradiently with DMSO from the 10 mM stock solution to a total of 10 concentrations respectively.
(§2) Adding 4 volumes of distilled water to 1 volume of enzyme buffer 5×; 5 mM MgCl2; 1 mM DTT.
(§3) b) centrifuging the compound plate for 1 minute at 1000 g.
(§4) c) sealing the test board.
(§5) f) adding 4 μl of 1× kinase buffer to each well of the test plate, centrifuging the sample plate at 1000 g for 30 seconds, and placing it at room temperature for 10 minutes.
(§6) g) preparing a solution of 5× TK-substrate-biotin ([…]) in kinase buffer and 5×ATP (50 μM) in kinase buffer respectively.
(§7) h) starting the reaction by adding 2 μl STK-substrate-biotin and 2 μl ATP (prepared in the step g).
(§8) i) centrifuging the sample plate for 30 seconds at 1000 g. Sealing the test board and placing it at room temperature for 30 minutes.
(§9) ) centrifuging at 1000 g for 30 seconds and placing it at room temperature for 1 hour.
(§10) The inhibition rate % was calculated as follows:
(§11) Inhibition rate %=[1−(fluorescence signal value of test compound−fluorescence signal value of positive control)/(average ratio of negative control−average ratio of positive control)]*100%
(§12) Ratio: generated from the measured fluorescence signal value
(§13) The average ratio of the positive control is the average ratio of the positive control (200 nM AT13148) in the sample plate;
(§14) The average ratio of negative controls is the average ratio of negative controls (0.1% DMSO) in the sample plate.
(§15) GraphPad 6.0 was used to fit the logarithm of the % inhibition rate and the compound concentration into a nonlinear regression (dose response−variable slope) to calculate the IC50 value.

In a further assay the target is T2, RET (V804M) (Homo sapiens, UniProt P07949, V804M).
T2 construct: purchased Signalchem R02-12GG
T2 sequence (P07949 29-1114 V804M): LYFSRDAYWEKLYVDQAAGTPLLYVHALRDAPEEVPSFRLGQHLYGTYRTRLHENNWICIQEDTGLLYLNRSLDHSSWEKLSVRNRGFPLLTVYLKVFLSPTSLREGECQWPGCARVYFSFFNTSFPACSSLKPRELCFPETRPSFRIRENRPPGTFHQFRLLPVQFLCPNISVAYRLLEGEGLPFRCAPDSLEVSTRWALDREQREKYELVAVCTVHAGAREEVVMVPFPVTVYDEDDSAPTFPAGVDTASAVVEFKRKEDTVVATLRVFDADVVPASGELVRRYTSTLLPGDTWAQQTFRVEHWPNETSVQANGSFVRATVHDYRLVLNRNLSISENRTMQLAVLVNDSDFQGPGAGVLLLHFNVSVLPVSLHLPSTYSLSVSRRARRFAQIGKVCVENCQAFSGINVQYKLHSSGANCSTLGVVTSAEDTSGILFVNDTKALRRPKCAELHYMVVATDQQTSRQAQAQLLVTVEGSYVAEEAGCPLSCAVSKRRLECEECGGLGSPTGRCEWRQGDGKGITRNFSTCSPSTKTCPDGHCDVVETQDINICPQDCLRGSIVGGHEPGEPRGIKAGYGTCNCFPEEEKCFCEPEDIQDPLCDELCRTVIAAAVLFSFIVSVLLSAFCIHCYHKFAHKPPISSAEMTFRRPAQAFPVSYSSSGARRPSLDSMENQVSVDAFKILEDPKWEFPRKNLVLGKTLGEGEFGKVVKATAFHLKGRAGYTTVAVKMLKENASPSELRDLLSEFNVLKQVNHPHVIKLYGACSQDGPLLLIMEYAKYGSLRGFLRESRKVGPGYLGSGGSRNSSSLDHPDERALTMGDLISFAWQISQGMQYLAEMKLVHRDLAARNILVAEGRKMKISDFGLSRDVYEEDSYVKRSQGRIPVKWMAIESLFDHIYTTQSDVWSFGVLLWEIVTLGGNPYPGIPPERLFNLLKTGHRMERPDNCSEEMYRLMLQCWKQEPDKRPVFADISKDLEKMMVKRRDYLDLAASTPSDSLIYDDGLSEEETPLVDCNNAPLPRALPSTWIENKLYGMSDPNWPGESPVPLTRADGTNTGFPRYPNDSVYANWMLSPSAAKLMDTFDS
Description: HTRF kinase activity test, RET V804M. It counts as biochemical. The conditions noted are these: Table 3; read-out: RET Enzyme (V804M) IC50. On the procedure: This test combined peptide substrates and a single proprietary monoclonal antibody with HTRF technology, which was a highly sensitive and stable technology for detecting molecular interactions of proteins. The enzyme phosphorylates the substrate, then the Eu-labeled antibody binds to the phosphorylated substrate, and streptavidin-XL665 binds to all substrates. The TR-FRET signal was generated by the HTRF principle. Once the inhibitor (test compound) was added, a weaker TR-FRET signal is obtained. Based on this, the inhibitory effect was evaluated.
as §1, §2
a) Transferring 10 nl of the compound dilution (prepared in 5.2) to each well of the test plate (784075, Greiner);
as §3, §4
d) preparing 5×Ret wt (0.2 ng/μl) and 5×Ret V804L (0.5 ng/μl)/5×Ret V804M (0.5 ng/μl) in 1× kinase buffer respectively.
e) adding 2 μl of 5×Ret wt or 2 μl of Ret V804L/RET V804M to a 384-well test plate (784075, Greiner).
as §5, §6, §7, §8
j) preparing 4×Sa-XL 665 (250 nM) in HTRF detection buffer.
k) adding 5 μl of Sa-XL 665 and 5 μl of TK-antibody-Cryptate (prepared in the step i) to each well of the test plate.
as §9
m) reading the fluorescence signal values at 615 nm (Cryptate) and 665 nm (XL665) on the Envision 2104 plate reader.
Calculating the ratio of each hole (665 nm/615 nm).
as §10, §11, §12, §13, §14, §15
A general note: Time-resolved FRET reads energy transfer from a long-lived donor to a nearby acceptor.

The subject of the next assay is TT Cell. As to the kind of experiment: Cell inhibitory activity test (CCK8). It counts as cell-based. The conditions noted are these: Homo sapiens, TT, Table 3, 72 hours incubation. How it is done: Cell Inhibitory Activity Test
1. preparing 90 μl of cell suspension in a 96-well plate with 4000 cells/well. Pre-incubating the culture plate in an incubator for 24 hours (37° C., 5% CO2).
2. adding 10 μl of test compounds of different concentrations to each well of cells, and each compound has multiple wells.
3. incubating the culture plate in the incubator for 72 hours.
4. adding 10 μl of CCK8 solution to each well (be careful not to generate bubbles in the well, otherwise they would affect the reading of the OD value).
5. incubating the culture plate in the incubator for 1-2 hours.
6. measuring the absorbance at 450 nm with a microplate reader.
7. according to the compound concentration and absorbance value, GraphpadPrism software was used to calculate the IC50 of each compound.

The test system of assay [1] is RET wild-type, mutant and/or fusion-type. As to the kind of experiment: Overall statement on RET inhibitory activity (summary of Table 3). To be noted: statement in words summarising Table 3. From the text: As shown in the above table, the example compounds of the present disclosure have improved inhibitory activity against RET wild-type, mutant and/or fusion-type.

pIC50: −log10 of the molar value. Structures can show the parent of a compound that is named as a salt.

By pIC50 is commonly meant the negative decadic logarithm of the IC50, by convention in mol/L.

T1 sequence (P07949 29-1114): as the sequence (P07949 29-1114 V804M) above, with M776V counted along it

With `COc1ccc(CN2C3CC2CN(c2cnc(-c4cc(OC[C@@H]5CNCCO5)cn5nc(N)c(C#N)c45)cn2)C3)cn1` [APS087, 2-amino-4-(5-(6-((6-methoxypyridin-3-yl)methyl)-3,6-diazabicyclo[3.1.1]heptan-3-yl)pyrazin-2-yl)-6-(((S)-morpholin-2-yl)methoxy)pyrazolo[1,5-a]pyridine-3-carbonitrile trifluoroacetate], the pIC50 at Ret wt, at RET (V804M) and in the assay with TT Cell was above 9.00 each time. For the same compound, in assay [1], the “inhibitory activity against RET wild-type, mutant and/or fusion-type” value (“inhibitory activity” below) was “excellent activity”.
In the case of `COc1ccc(CN2C3CC2CN(c2ccc(-c4cc(OCC(C)(C)O)cn5nc(N)c(C#N)c45)cn2)C3)cn1` [APS089], the pIC50 on Ret wt is 8.74; at RET (V804M), 8.80; with TT Cell, 7.73. For the same compound, the “inhibitory activity” value in assay [1] was “excellent activity”.
With `COc1ccc(CN2C3CC2CN(c2ccc(-c4cc(OCC(C)(C)O)cn5nc(F)c(C#N)c45)cn2)C3)cn1` [APS090], the figures for the pIC50 on Ret wt, on RET (V804M) and in the assay with TT Cell were 7.27, 6.31 and 7.50, respectively.
Turning to `COc1ccc(CN2C3CC2CN(c2ccc(-c4cc(OCC(C)(C)O)cn5nc(OC)c(C#N)c45)cn2)C3)cn1` [APS091, 6-(2-hydroxy-2-methylpropoxy)-2-methoxy-4-(6-(6-((6-methoxypyridin-3-yl)methyl)-3,6-diazabicyclo[3.1.1]heptan-3-yl)pyridin-3-yl)pyrazolo[1,5-a]pyridine-3-carbonitrile], the negative logarithm of the IC50 (pIC50) at RET (V804M) is 6.02.
Take `CCOc1cc(-c2cnc(N3CC4CC(C3)N4Cc3ccc(OC)nc3)cn2)c2c(C#N)c(N)nn2c1` [APS092, 2-amino-6-ethoxy-4-(5-(6-((6-methoxypyridin-3-yl)methyl)-3,6-diazabicyclo[3.1.1]heptane-3-yl)pyrazin-2-yl)pyrazolo[1,5-a]pyridine-3-carbonitrile]: the pIC50 on Ret wt was 8.37; at RET (V804M), 8.57; in the assay on TT Cell, 7.22. Besides, the “inhibitory activity” value in assay [1] is listed as “excellent activity”.
In the case of `COc1ccc(CN2C3CC2CN(c2ccc(-c4cc(OCC(C)(C)O)cn5nc(NC(C)=O)c(C#N)c45)cn2)C3)cn1` [APS093], the figures for the negative-log IC50 (pIC50) at Ret wt and at RET (V804M) were 5.54 and 5.81, respectively.
On to `COc1ccc(CN2C3CC2CN(c2ccc(-c4cc(OCC(C)(C)O)cn5nc(NCCO)c(C#N)c45)cn2)C3)cn1` [APS094, 6-(2-Hydroxy-2-methylpropoxy)-2-((2-2-hydroxyethyl)amino)-4-(6-(6-((6-methoxypyridine-3-yl)methyl)-3,6-diazabicyclo[3.1.1]heptan-3-yl)pyridin-3-yl)pyrazolo[1,5-a]pyridine-3-carbonitrile], for which the figures for the pIC50 at Ret wt and on RET (V804M) were 6.03 and 6.31, respectively.
For `CCOc1cc(-c2ccc(N3CC4CC(C3)N4Cc3ccc(OC)nc3)nc2)c2c(C#N)c(N)nn2c1` [APS095], the pIC50 is above 9.00 at Ret wt, above 9.00 at RET (V804M) and 7.41 in the assay on TT Cell. The “inhibitory activity” value in assay [1] is given as “excellent activity”.
As to `CCOc1cc(-c2ccc(N3CC4CC(C3)N4Cc3ccc(OC)nc3)nc2)c2c(C#N)c(F)nn2c1` [APS096], the results for the negative-log IC50 (pIC50) at Ret wt and at RET (V804M) were 6.91 and 6.73, respectively.
For the compound `COCCOc1cc(-c2ccc(N3CC4CC(C3)N4Cc3ccc(OC)nc3)nc2)c2c(C#N)c(N)nn2c1` [APS097, 2-amino-6-(2-methoxyethoxy)-4-(6-(6-((6-methoxypyridin-3-yl)methyl)-3,6-diazabicyclo[3.1.1]heptan-3-yl)pyridin-3-yl)pyrazolo[1,5-a]pyridine-3-carbonitrile], the results for the negative-log IC50 (pIC50) at Ret wt, on RET (V804M) and in the assay on TT Cell were above 9.00, above 9.00 and 7.12, respectively. The “inhibitory activity” value in assay [1] is reported as “excellent activity”.
With `COCCOc1cc(-c2ccc(N3CC4CC(C3)N4Cc3ccc(OC)nc3)nc2)c2c(C#N)c(F)nn2c1` [APS098, 2-fluoro-6-(2-methoxyethoxy)-4-(6-(6-((6-methoxypyridin-3-yl)methyl)-3,6-diazabicyclo [3.1.1]heptan-3-yl)pyridin-3-yl)pyrazolo[1,5-a]pyridine-3-carbonitrile], the negative logarithm of the IC50 (pIC50) at Ret wt is 6.84; at RET (V804M), 7.07.
For `COCCOc1cc(-c2ccc(N3CC4CC(C3)N4Cc3ccc(OC)nc3)nc2)c2c(C#N)c(NC(C)=O)nn2c1` [APS103], the figures for the negative-log IC50 (pIC50) at Ret wt and on RET (V804M) were 6.58 and 6.81, respectively.
On to `COc1ccc(CN2C3CC2CN(c2cnc(-c4cc(OC[C@@H]5CN(C)CCO5)cn5nc(F)c(C#N)c45)cn2)C3)cn1` [APS104, 2-fluoro-4-(5-(6-((6-methoxypyridin-3-yl)methyl)-3,6-diazabicyclo[3.1.1]heptan-3-yl)pyrazin-2-yl)-6-(((S)-4-methylmorpholin-2-yl)methoxy)pyrazolo[1,5-a]pyridine-3-carbonitrile], for which the pIC50 was 8.16 at Ret wt and 7.85 on RET (V804M). Besides, the “inhibitory activity” value in assay [1] is “excellent activity”.
Consider `CCOc1cc(-c2ccc(N3CC4CC(C3)N4Cc3cnc(OC)c(Cl)c3)nc2)c2c(C#N)c(N)nn2c1` [APS105], for which the values for the pIC50 on Ret wt, at RET (V804M) and in the assay on TT Cell were above 9.00, above 9.00 and 7.55, respectively. In assay [1], the “inhibitory activity” value is reported as “excellent activity”.
Regarding `COc1ccc(CN2C3CC2CN(c2ccc(-c4cc(OCC(C)(C)O)cn5nc(N)c(C(N)=O)c45)cn2)C3)cn1` [APS106], the pIC50 on Ret wt was 6.13; on RET (V804M), 6.01.
With `COc1ccc(CN2C3CC2CN(c2cnc(-c4cc(OC[C@@H]5CN(C)CCO5)cn5nc(N)c(C#N)c45)cn2)C3)cn1` [APS107, 2-amino-4-(5-(6-((6-methoxypyridin-3-yl)methyl)-3,6-diazabicyclo[3.1.1]heptan-3-yl)pyrazin-2-yl)-6-(((S)-4-methylmorpholin-2-yl)methoxy)pyrazolo[1,5-a]pyridine-3-carbonitrile], the negative-log IC50 (pIC50) was above 9.00 at Ret wt, above 9.00 at RET (V804M) and 7.79 with TT Cell. The “inhibitory activity” value in assay [1] is recorded as “excellent activity”.
In the case of `COc1ccc(CN2C3CC2CN(c2ccc(-c4cc(OCC(F)F)cn5nc(N)c(C#N)c45)cn2)C3)cn1` [APS114, 2-amino-6-(2,2-difluoroethoxy)-4-(6-(6-((6-methoxypyridin-3-yl)methyl)-3,6-diazabicyclo[3.1.1]heptan-3-yl)pyridin-3-yl)pyrazolo[1,5-a]pyridine-3-carbonitrile], the negative-log IC50 (pIC50) was 8.70 at Ret wt and above 9.00 on RET (V804M). Besides, the “inhibitory activity” value in assay [1] is “excellent activity”.
As to `COc1ccc(CN2C3CC2CN(c2ccc(-c4cc(OC(F)F)cn5nc(N)c(C#N)c45)cn2)C3)cn1` [APS115, 2-amino-6-(difluoromethoxy)-4-(6-(6-((6-methoxypyridin-3-yl)methyl)-3,6-diazabicyclo[3.1.1]heptan-3-yl)pyridin-3-yl)pyrazolo[1,5-a]pyridine-3-carbonitrile], the values for the negative-log IC50 (pIC50) on Ret wt and on RET (V804M) were 7.34 and 8.06, respectively.
